Reference: patent US4954482A, “New glycopeptide antibiotic” (Pfizer Inc., priority 1986, dated 1990)

Test system: rumen fluid
Assay: In vitro rumen technique: propionic acid production
Type: cell-based, cow
Details: 10 micrograms per milliliter; rumen fluid incubated at 39° C. about 16 hours
Description: The value of animal feeds has generally been determined directly by feeding the animal. British Patent Specification No. 1,197,826 details an in vitro rumen technique whereby the changes occurring in feeds brought about by microorganisms are measured more readily and with great accuracy in the evaluation of animal feeds. This technique involves the use of an apparatus in which the digestive processes of the animals are conducted and studied in vitro. The animal feeds, rumen inoculum and various growth promotants are introduced into and withdrawn from a laboratory unit under carefully controlled conditions and the changes taken place are studied critically and progressively during the consumption of the feed by the microorganisms. […] The change in propionic acid content is expressed as percent of the propionic acid content found in the control rumen fluid. Long term in vivo feeding studies are used to show a reliable correlation between propionic acid increase in the rumen fluid and improved animal performance. […]
After incubation, 5 ml. of the sample is mixed with 1 ml. of 25% metaphosphoric acid. […] Samples are then analyzed by gas-liquid chromatography by the mthod of D. W. Kellog, J. Dairy Science, 52, 1690, 1969. Peak heights for acetic, propionic and butyric acids are determined for samples from untreated and treated incubation flasks.

CC[C@@H](C(=O)[C@@H](C)[C@@H](O)[C@H](C)[C@@H]1O[C@@H]([C@@H](CC)C(=O)O)CC[C@@H]1C)[C@H]1O[C@]2(C=C[C@@H](O)[C@]3(CC[C@@](C)([C@H]4CC[C@](O)(CC)[C@H](C)O4)O3)O2)[C@H](C)C[C@@H]1C [salinomycin]
increase in the production of propionic acid over control: ~46%
